{"source": "patent US10793892B2", "about": "“Method for detecting the presence of expanded spectrum β-lactamase-producing bacteria in a sample” (INSERM (INSTITUT NATIONAL DE LA SANTE ET DE LA RECHERCHE …, priority 2011, dated 2020)", "key": {"E. coli": {"system": "E. coli", "experiment": "ESBL NDP test using cultured strains", "format": "biochemical, Escherichia coli", "set-up": "key: (+) and (−) referred to color change being, red to yellow or unchanged, respectively; (+) and (−) referred to color change being, red to yellow or unchanged, respectively", "procedure": "Strains were isolated on Mueller-Hinton agar (Biorad, Marnes-la-Coquette, France) and incubated at 37° C. for 16 h to 24 h before performing the NDP rapid ESBL test as follows. One calibrated inoculated loop (10 μl) of the tested strain was resuspended in 150 μl of 20 mM Tris-HCl lysis buffer previously distributed in Microbead tubes (Ultraclean Microbial DNA isolation kit Bead Tubes, MO BIO Laboratories, Carlsbad, USA). Mechanical lysis of bacteria was performed by strong agitation of Microbead tubes using a vortex adapter (MO BIO Laboratories) for 30 min at room temperature. This bacterial suspension was centrifuged at 10,000×g at room temperature for 5 min. Thirty μl of the supernatant was mixed in a well of a 96-well tray with 100 μl of a 1 ml solution made of 3 mg of purified cefotaxime sodium salt (Sigma-Aldrich, Saint-Quentin-Fallavier, France) in a pH 7.8 phenol red solution. […]. The phenol red solution was made by taking 2 ml of a concentrated pH 8 phenol solution (made from a mixture of phenol red 0.5% in distilled water) to which 16.6 ml of distilled water was added. The pH value was then adjusted to a 7.8 value by adding drops of a 1 N NaOH solution. Mixture of the phenol red solution and the enzymatic suspension being tested was incubated at 37° C. for 30 min. Similarly, culture extracts were analyzed in wells containing cefotaxime and tazobactam (4 mg/ml). Other concentrations of tazobactam and other ß-lactamase inhibitors were tested giving less clear results (data not shown). […] This definition of test positivity will be applied throughout the study."}, "S. enterica": {"system": "S. enterica", "experiment": "ESBL NDP test using cultured strains", "format": "biochemical, Salmonella enterica", "set-up": "key: (+) and (−) referred to color change being, red to yellow or unchanged, respectively; (+) and (−) referred to color change being, red to yellow or unchanged, respectively", "procedure": "Strains were isolated on Mueller-Hinton agar (Biorad, Marnes-la-Coquette, France) and incubated at 37° C. for 16 h to 24 h before performing the NDP rapid ESBL test as follows. One calibrated inoculated loop (10 μl) of the tested strain was resuspended in 150 μl of 20 mM Tris-HCl lysis buffer previously distributed in Microbead tubes (Ultraclean Microbial DNA isolation kit Bead Tubes, MO BIO Laboratories, Carlsbad, USA). Mechanical lysis of bacteria was performed by strong agitation of Microbead tubes using a vortex adapter (MO BIO Laboratories) for 30 min at room temperature. This bacterial suspension was centrifuged at 10,000×g at room temperature for 5 min. Thirty μl of the supernatant was mixed in a well of a 96-well tray with 100 μl of a 1 ml solution made of 3 mg of purified cefotaxime sodium salt (Sigma-Aldrich, Saint-Quentin-Fallavier, France) in a pH 7.8 phenol red solution. […]. The phenol red solution was made by taking 2 ml of a concentrated pH 8 phenol solution (made from a mixture of phenol red 0.5% in distilled water) to which 16.6 ml of distilled water was added. The pH value was then adjusted to a 7.8 value by adding drops of a 1 N NaOH solution. Mixture of the phenol red solution and the enzymatic suspension being tested was incubated at 37° C. for 30 min. Similarly, culture extracts were analyzed in wells containing cefotaxime and tazobactam (4 mg/ml). […]"}}}
{"smiles": "CO/N=C(\\C(=O)N[C@@H]1C(=O)N2C(C(=O)O)=C(COC(C)=O)CS[C@H]12)c1csc(N)n1", "note": "[CTX, cefotaxime]", "values": [{"measurement": "ESBL NDP Test from: Colonies", "setting": "E. coli; E. coli 09.11, TEM-52", "result": "+"}, {"measurement": "ESBL NDP Test from: Colonies", "setting": "E. coli; E. coli 09.123, TEM-133", "result": "−"}, {"measurement": "ESBL NDP Test from: Colonies", "setting": "E. coli; E. coli 09.124, TEM-52", "result": "+"}, {"measurement": "ESBL NDP Test from: Colonies", "setting": "E. coli; E. coli 09.129, SHV-12", "result": "+"}, {"measurement": "ESBL NDP Test from: Colonies", "setting": "E. coli; E. coli 09.173, SHV-12", "result": "+"}, {"measurement": "ESBL NDP Test from: Colonies", "setting": "E. coli; E. coli 09.187, SHV-2a", "result": "+"}, {"measurement": "ESBL NDP Test from: Colonies", "setting": "E. coli; E. coli 09.193, SHV-12", "result": "+"}, {"measurement": "ESBL NDP Test from: Colonies", "setting": "E. coli; E. coli 09.207, SHV-2a", "result": "+"}, {"measurement": "ESBL NDP Test from: Colonies", "setting": "E. coli; E. coli 09.225, TEM-52", "result": "+"}, {"measurement": "ESBL NDP Test from: Colonies", "setting": "E. coli; E. coli 09.40, TEM-52", "result": "+"}, {"measurement": "ESBL NDP Test from: Colonies", "setting": "E. coli; E. coli 09.41, SHV-12", "result": "+"}, {"measurement": "ESBL NDP Test from: Colonies", "setting": "E. coli; E. coli 09.66, TEM-52", "result": "+"}, {"measurement": "ESBL NDP Test from: Colonies", "setting": "E. coli; E. coli 09.73, TEM-52", "result": "+"}, {"measurement": "ESBL NDP Test from: Colonies", "setting": "E. coli; E. coli 09.79, SHV-12", "result": "+"}, {"measurement": "ESBL NDP Test from: Colonies", "setting": "E. coli; E. coli 09.92, TEM-52", "result": "+"}, {"measurement": "ESBL NDP Test from: Colonies", "setting": "E. coli; E. coli 10.104, CTX-M-1", "result": "+"}, {"measurement": "ESBL NDP Test from: Colonies", "setting": "E. coli; E. coli 10.11, CTX-M-14", "result": "+"}, {"measurement": "ESBL NDP Test from: Colonies", "setting": "E. coli; E. coli 10.121, CTX-M-2", "result": "+"}, {"measurement": "ESBL NDP Test from: Colonies", "setting": "E. coli; E. coli 10.124, CTX-M-14", "result": "+"}, {"measurement": "ESBL NDP Test from: Colonies", "setting": "E. coli; E. coli 10.130, CTX-M-3", "result": "+"}, {"measurement": "ESBL NDP Test from: Colonies", "setting": "E. coli; E. coli 10.13, CTX-M-14", "result": "+"}, {"measurement": "ESBL NDP Test from: Colonies", "setting": "E. coli; E. coli 10.132, CTX-M-2", "result": "+"}, {"measurement": "ESBL NDP Test from: Colonies", "setting": "E. coli; E. coli 10.16, CTX-M-15", "result": "+"}, {"measurement": "ESBL NDP Test from: Colonies", "setting": "E. coli; E. coli 10.178, CTX-M-27", "result": "+"}, {"measurement": "ESBL NDP Test from: Colonies", "setting": "E. coli; E. coli 10.198, CTX-M-27", "result": "+"}, {"measurement": "ESBL NDP Test from: Colonies", "setting": "E. coli; E. coli 10.204, CTX-M-27", "result": "+"}, {"measurement": "ESBL NDP Test from: Colonies", "setting": "E. coli; E. coli 10.207, CTX-M-27", "result": "+"}, {"measurement": "ESBL NDP Test from: Colonies", "setting": "E. coli; E. coli 10.23, CTX-M-2", "result": "+"}, {"measurement": "ESBL NDP Test from: Colonies", "setting": "E. coli; E. coli 10.32, CTX-M-14", "result": "+"}, {"measurement": "ESBL NDP Test from: Colonies", "setting": "E. coli; E. coli 10.33, CTX-M-15", "result": "+"}, {"measurement": "ESBL NDP Test from: Colonies", "setting": "E. coli; E. coli 10.36, CTX-M-1", "result": "+"}, {"measurement": "ESBL NDP Test from: Colonies", "setting": "E. coli; E. coli 10.38, CTX-M-1", "result": "+"}, {"measurement": "ESBL NDP Test from: Colonies", "setting": "E. coli; E. coli 10.43, CTX-M-15", "result": "+"}, {"measurement": "ESBL NDP Test from: Colonies", "setting": "E. coli; E. coli 10.46, CTX-M-14", "result": "+"}, {"measurement": "ESBL NDP Test from: Colonies", "setting": "E. coli; E. coli 10.49, CTX-M-15", "result": "+"}, {"measurement": "ESBL NDP Test from: Colonies", "setting": "E. coli; E. coli 10.53, CTX-M-9", "result": "+"}, {"measurement": "ESBL NDP Test from: Colonies", "setting": "E. coli; E. coli 10.64, CTX-M-32", "result": "+"}, {"measurement": "ESBL NDP Test from: Colonies", "setting": "E. coli; E. coli 10.73, CTX-M-27", "result": "+"}, {"measurement": "ESBL NDP Test from: Colonies", "setting": "E. coli; E. coli 10.74, CTX-M-15", "result": "+"}, {"measurement": "ESBL NDP Test from: Colonies", "setting": "E. coli; E. coli 10.95, CTX-M-1", "result": "+"}, {"measurement": "ESBL NDP Test from: Colonies", "setting": "E. coli; E. coli (Belgium), ACC-1", "result": "−"}, {"measurement": "ESBL NDP Test from: Colonies", "setting": "E. coli; E. coli A7R5, SHV-3", "result": "+"}, {"measurement": "Test (color change)", "setting": "E. coli; E. coli ACC-1, n=1, first line", "result": "−"}, {"measurement": "Test (color change)", "setting": "E. coli; E. coli ACC-1, n=1, second line", "result": "+"}, {"measurement": "ESBL NDP Test from: Colonies", "setting": "E. coli; E. coli BG 1106 5698, Penicillinase", "result": "−"}, {"measurement": "ESBL NDP Test from: Colonies", "setting": "E. coli; E. coli BG 1106 6252, Wild-type", "result": "−"}, {"measurement": "ESBL NDP Test from: Colonies", "setting": "E. coli; E. coli BG 1106 6367, Wild-type", "result": "−"}, {"measurement": "ESBL NDP Test from: Colonies", "setting": "E. coli; E. coli BG 1106 7202, Penicillinase", "result": "−"}, {"measurement": "ESBL NDP Test from: Colonies", "setting": "E. coli; E. coli BG 1107 8873, Wild-type", "result": "−"}, {"measurement": "ESBL NDP Test from: Colonies", "setting": "E. coli; E. coli BG 1108 6157, Penicillinase", "result": "−"}, {"measurement": "ESBL NDP Test from: Colonies", "setting": "E. coli; E. coli C5O52, CTX-M-28", "result": "+"}, {"measurement": "Test (color change)", "setting": "E. coli; E. coli CMY-2, n=1", "result": "+"}, {"measurement": "Test (color change)", "setting": "E. coli; E. coli CTX-M-1, n=16", "result": "+"}, {"measurement": "Test (color change)", "setting": "E. coli; E. coli CTX-M-2, n=3", "result": "+"}, {"measurement": "Test (color change)", "setting": "E. coli; E. coli CTX-M-3, n=1", "result": "+"}, {"measurement": "Test (color change)", "setting": "E. coli; E. coli CTX-M-9, n=1", "result": "+"}, {"measurement": "Test (color change)", "setting": "E. coli; E. coli CTX-M-14, n=15", "result": "+"}, {"measurement": "Test (color change)", "setting": "E. coli; E. coli CTX-M-15, n=46", "result": "+"}, {"measurement": "Test (color change)", "setting": "E. coli; E. coli CTX-M-27, n=6", "result": "+"}, {"measurement": "Test (color change)", "setting": "E. coli; E. coli CTX-M-28, n=1", "result": "+"}, {"measurement": "Test (color change)", "setting": "E. coli; E. coli CTX-M-32, n=1", "result": "+"}, {"measurement": "Test (color change)", "setting": "E. coli; E. coli CTX-M-97, n=1", "result": "+"}, {"measurement": "Test (color change)", "setting": "E. coli; E. coli DHA-1, n=1", "result": "−"}, {"measurement": "ESBL NDP Test from: Colonies", "setting": "E. coli; E. coli Ec13 SYD, CMY-2", "result": "+"}, {"measurement": "ESBL NDP Test from: Colonies", "setting": "E. coli; E. coli GOU, DHA-1", "result": "−"}, {"measurement": "ESBL NDP Test from: Colonies", "setting": "E. coli; E. coli LOU, ACC-1", "result": "+"}, {"measurement": "Test (color change)", "setting": "E. coli; E. coli SHV-2a, n=3", "result": "+"}, {"measurement": "Test (color change)", "setting": "E. coli; E. coli SHV-3, n=1", "result": "+"}, {"measurement": "Test (color change)", "setting": "E. coli; E. coli SHV-12, n=1", "result": "−"}, {"measurement": "Test (color change)", "setting": "E. coli; E. coli SHV-12, n=6", "result": "+"}, {"measurement": "Test (color change)", "setting": "E. coli; E. coli TEM-1 penicillinase, n=5", "result": "−"}, {"measurement": "Test (color change)", "setting": "E. coli; E. coli TEM-12, n=1", "result": "−"}, {"measurement": "Test (color change)", "setting": "E. coli; E. coli TEM-29, n=2", "result": "−"}, {"measurement": "Test (color change)", "setting": "E. coli; E. coli TEM-52, n=8", "result": "+"}, {"measurement": "Test (color change)", "setting": "E. coli; E. coli TEM-133, n=1", "result": "−"}, {"measurement": "Test (color change)", "setting": "E. coli; E. coli VEB-1, n=1", "result": "+"}, {"measurement": "Test (color change)", "setting": "E. coli; E. coli Wild-type, no resistance, n=5", "result": "−"}, {"measurement": "Test (color change)", "setting": "S. enterica; S. enterica CTX-M-1, n=1", "result": "+"}, {"measurement": "Test (color change)", "setting": "S. enterica; S. enterica Wild-type, no resistance, n=1", "result": "−"}]}
